The text below walks through data of ChEMBL document CHEMBL1138818, “Design and synthesis of cyclic urea compounds: a pharmacological study for retinoidal activity” (2004).

The test system of assay [1] is HL-60. The experiment in a line: Effective concentration required for induction of differentiation of HL-60 cells into mature granulocytes. IA = No activity at E-6. Type of assay: functional, cell-based. To be noted: Homo sapiens.
Assay [2] has as its system HL-60. Description: Effective concentration required for induction of differentiation of HL-60 cells into mature granulocytes. To be noted: Homo sapiens, read-out: ED50 (the source's name). Type of assay: functional.
For assay [3], the system named is HL-60. Description: Effective concentration required for induction of differentiation of HL-60 cells into mature granulocytes.( >10e-6= slight activity at 10e-6). Type of assay: functional. The conditions noted are these: Homo sapiens, read-out: ED50 (the source's name).

pEC50: −log10 of the molar value. Activity calls are given as the source filed them. No cut-off for these calls is given here. Some results are limits rather than exact numbers.

Turning to `CC(C)(C)c1ccc(N2CCCN(c3ccc(C(=O)O)cc3)C2=O)cc1`, the ED50 result with HL-60 [1] is “inactive”.

Consider `CC(C)(C)c1cc(N2CCCN(c3ccc(C(=O)O)cc3)C2=O)cc(C(C)(C)C)c1`, for which the pEC50 in the assay with HL-60 [2] was 6.31.

As to `CC1(C)CCC(C)(C)c2cc(NC(=O)c3ccc(C(=O)O)cc3)ccc21` [TAMIBAROTENE], in the assay with HL-60 [2], the pEC50 was 9.10.

Take `CC1(C)CCC(C)(C)c2cc(N3CCN(c4ccc(C(=O)O)cc4)C3=O)ccc21`: the pEC50 with HL-60 [2] was 6.92.

Take `CC(C)(C)c1ccc(N2CCN(c3ccc(C(=O)O)cc3)C2=O)cc1`: in the assay on HL-60 [1], the ED50 entry is “inactive”.

`CC1(C)CCC(C)(C)c2cc(NC(=O)Nc3ccc(C(=O)O)cc3)ccc21`: the pEC50 in the assay with HL-60 [3] was under 5.00.

For `CC1(C)CCC(C)(C)c2cc(N3CCCN(c4ccc(C(=O)O)cc4)C3=O)ccc21`, in the assay on HL-60 [1], the ED50 result is “inactive”.

Take `CC1=C(/C=C/C(C)=C/C=C/C(C)=C/C(=O)O)C(C)(C)CCC1` [TRETINOIN]: in the assay on HL-60 [2], the pEC50 was 8.62.

For the compound `O=C(O)c1ccc(N2CCCN(c3ccccc3)C2=O)cc1`, the ED50 result in the assay on HL-60 [1] was “inactive”.

With `CC(C)(C)c1cc(N2CCN(c3ccc(C(=O)O)cc3)C2=O)cc(C(C)(C)C)c1`, the pEC50 in the assay on HL-60 [2] is 8.08.

On to `O=C(O)c1ccc(N2CCN(c3ccccc3)C2=O)cc1`, for which the ED50 result with HL-60 [1] was “inactive”.
